From the supplement of paper PMC10307832

How the values were obtained:
Assay in all cases: relative viability (nuclei count vs DMSO), 5 days (fraction); higher = more cells survive
AZD5582 + Linsitinib = compound: C[C@@H](C(=O)N[C@@H](C1CCCCC1)C(=O)N2CCC[C@H]2C(=O)N[C@@H]3[C@@H](CC4=CC=CC=C34)OCC#CC#CCO[C@@H]5CC6=CC=CC=C6[C@@H]5NC(=O)[C@@H]7CCCN7C(=O)[C@H](C8CCCCC8)NC(=O)[C@H](C)NC)NC [AZD5582] + C[C@]1(O)C[C@@H](c2nc(-c3ccc4ccc(-c5ccccc5)nc4c3)c3c(N)nccn32)C1 [Linsitinib] (partner 1 µM)
Procedure, shortened: (§1)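 Lung cancer cell lines were seeded in 1536-well plates and dosed by pin tool the next day, with either a single drug or a fixed anchor-drug dose combined with five library-drug doses (not always all listed) spaced in √10 steps. Five days later, one step fixed the cells and stained their nuclei (final 0.05% Triton X-100, 1% formaldehyde, 1 ug/ml Hoechst), and nuclei were counted on 4× images. Relative viability is the nuclei count in treated wells divided by the count in vehicle wells, and each value is the median of duplicate plates.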

[1] = compound: Cn1nnc2c(C(N)=O)ncn2c1=O [Temozolomide] + Nc1ncn([C@H]2C[C@H](O)[C@@H](CO)O2)c(=O)n1 [Decitabine] (partner 2 µM)
Procedure, shortened: as §1

AZD5582 + Crizotinib = compound: C[C@@H](C(=O)N[C@@H](C1CCCCC1)C(=O)N2CCC[C@H]2C(=O)N[C@@H]3[C@@H](CC4=CC=CC=C34)OCC#CC#CCO[C@@H]5CC6=CC=CC=C6[C@@H]5NC(=O)[C@@H]7CCCN7C(=O)[C@H](C8CCCCC8)NC(=O)[C@H](C)NC)NC [AZD5582] + C[C@@H](Oc1cc(-c2cnn(C3CCNCC3)c2)cnc1N)c1c(Cl)ccc(F)c1Cl [Crizotinib] (partner 1 µM)
Procedure, shortened: as §1

[2] = compound: Cn1nnc2c(C(N)=O)ncn2c1=O [Temozolomide] + CC(=O)c1c(C)c2cnc(Nc3ccc(N4CCNCC4)cn3)nc2n(C2CCCC2)c1=O [Palbociclib] (partner 0.5 µM)
Procedure, shortened: as §1

Row | Cell Line | relative viability (AZD5582 + Linsitinib; first compound 0.001581 µM) | relative viability (AZD5582 + Linsitinib; first compound 0.005 µM) | relative viability (AZD5582 + Linsitinib; first compound 0.01581 µM) | relative viability (AZD5582 + Linsitinib; first compound 0.05 µM) | relative viability ([1]; first compound 0.2 µM) | relative viability ([1]; first compound 0.6325 µM) | relative viability ([1]; first compound 2 µM) | relative viability ([1]; first compound 6.325 µM) | relative viability ([1]; first compound 20 µM) | relative viability (AZD5582 + Crizotinib; first compound 0.001581 µM) | relative viability (AZD5582 + Crizotinib; first compound 0.005 µM) | relative viability (AZD5582 + Crizotinib; first compound 0.01581 µM) | relative viability (AZD5582 + Crizotinib; first compound 0.05 µM) | relative viability ([2]; first compound 0.2 µM) | relative viability ([2]; first compound 0.6325 µM) | relative viability ([2]; first compound 2 µM) | relative viability ([2]; first compound 6.325 µM) | relative viability ([2]; first compound 20 µM)
1 | 201T | 1.03 | 1.18 | 0.995 | 1.27 | 0.832 | 0.877 | 0.866 | 0.821 | 0.843 | 1.09 | 1.12 | 1.04 | 1.25 | 0.348 | 0.361 | 0.382 | 0.362 | 0.355
2 | A549 | 0.545 | 0.768 | 0.444 | 0.726 | 0.314 | 0.184 | 0.289 | 0.246 | 0.207 | 0.504 | 0.923 | 0.667 | 0.826 | – | – | – | – | –
3 | A-427 | 1.01 | 1.04 | 1.12 | 0.955 | 0.565 | 0.538 | 0.459 | 0.443 | 0.396 | 0.623 | 0.751 | 0.97 | 0.618 | 0.519 | 0.575 | 0.518 | 0.492 | 0.427
4 | ABC-1 | 0.766 | 0.958 | 0.913 | 0.971 | 0.931 | 0.878 | 1.59 | 0.94 | 1.24 | 0.737 | 0.863 | 1.04 | 0.919 | 0.639 | 0.777 | 0.707 | 0.65 | 0.65
5 | BEN | 0.718 | 1.01 | 0.91 | 1.09 | 0.77 | 0.677 | 0.808 | 0.7 | 0.659 | 0.658 | 0.784 | 0.979 | 0.848 | 0.483 | 0.466 | 0.469 | 0.487 | 0.471
6 | CAL-12T | 0.665 | 0.656 | 0.775 | 0.544 | – | – | – | – | – | – | 0.175 | 0.531 | 0.192 | 0.285 | 0.568 | 0.608 | 0.484 | 0.405
7 | COR-L23 | 0.937 | 0.957 | 0.913 | 1.16 | 0.452 | 0.493 | 0.478 | 0.419 | 0.404 | 0.539 | 0.682 | 0.629 | 0.796 | 0.383 | 0.398 | 0.311 | 0.266 | 0.269
8 | COR-L 105 | 0.923 | 1.02 | 0.909 | 1.17 | 0.691 | 0.643 | 0.649 | 0.739 | 0.535 | 0.667 | 0.82 | 0.684 | 0.817 | 0.433 | 0.446 | 0.402 | 0.383 | 0.33
9 | Calu-6 | 0.811 | – | 0.985 | 0.768 | – | – | – | – | – | 0.432 | 0.384 | 0.837 | 0.336 | – | – | – | – | –
10 | ChaGo-K-1 | – | – | – | – | 0.521 | 0.524 | 0.529 | 0.54 | 0.507 | 0.988 | 1.1 | 1.13 | 1.23 | 1.05 | 0.967 | 0.967 | 0.873 | 0.917
11 | EBC-1 | 0.828 | 0.939 | 0.883 | 1.03 | – | – | – | – | – | 0.178 | 0.233 | 0.181 | 0.208 | – | – | – | – | –
12 | EKVX | 0.872 | 1.12 | 0.875 | 1.14 | – | 0.295 | 0.236 | 0.34 | 0.221 | 0.713 | 0.9 | 0.753 | 0.96 | – | 0.322 | 0.292 | 0.323 | 0.223
13 | EMC-BAC-2 | 0.768 | 0.871 | 0.831 | 0.564 | 1.01 | 1.05 | 1.01 | 0.993 | 0.927 | 0.637 | 0.551 | 0.682 | 0.236 | 0.563 | 0.534 | 0.542 | 0.511 | 0.514
14 | EPLC-272H | 0.624 | 0.717 | 0.984 | 0.229 | 0.357 | 0.395 | 0.385 | 0.401 | 0.312 | 0.187 | 0.131 | 0.746 | 0.0674 | 0.319 | 0.337 | 0.356 | 0.321 | 0.299
15 | H3255 | 0.81 | 0.975 | 0.839 | 0.893 | – | 0.652 | 0.812 | 0.514 | 0.187 | 0.825 | 0.712 | 0.743 | 0.756 | – | 0.315 | 0.302 | 0.312 | 0.297
16 | HARA | 1.01 | 0.897 | 0.951 | 0.867 | 0.677 | 0.607 | 0.594 | 0.523 | 0.489 | 1.01 | 0.894 | 1.04 | 1 | – | 0.307 | 0.303 | 0.302 | 0.233
17 | HCC-15 | 0.832 | 0.779 | 0.91 | 0.721 | 0.738 | 0.633 | 0.588 | 0.617 | 0.798 | 0.646 | 0.536 | 0.754 | 0.455 | 0.778 | 0.717 | 0.805 | 0.691 | 0.706
18 | HCC-44 | 0.589 | 0.558 | 0.616 | 0.432 | 1.04 | 0.991 | 0.963 | 0.951 | 0.966 | 0.5 | 0.457 | 0.793 | 0.378 | 0.984 | 0.943 | 0.921 | 0.988 | 0.981
19 | HCC-78 | 0.455 | 0.592 | 0.5 | 0.45 | 0.743 | 0.679 | 0.763 | – | 0.614 | 0.294 | 0.353 | 0.312 | 0.426 | 0.474 | 0.475 | 0.458 | 0.473 | 0.487
